Laboratory results taken from patent US8916711B2, “Imidazothiazole-chalcone derivatives as potential anticancer agents and process for the preparation thereof” (Council of Scientific and Industrial Research, priority 2009, dated 2014).
Like-named read-outs stand apart in the source and are kept apart here.

Experiments:
Assay type in all cases: cell-based
[1] = tested on: K-562; experiment: NCI in vitro cytotoxicity (SRB, 48 h), Leukemia panel; conditions: Homo sapiens, K562; K-562, Leukemia; 48 h exposure
[2] = tested on: CAKI-1; experiment: NCI in vitro cytotoxicity (SRB, 48 h), Renal panel; conditions: Homo sapiens; for GI50: CAKI-1, Renal, 48 h exposure
[3] = tested on: SNB-19; experiment: NCI in vitro cytotoxicity (SRB, 48 h), CNS panel; conditions: Homo sapiens; SNB-19, CNS; 48 h exposure
[4] = tested on: T-47D; experiment: NCI in vitro cytotoxicity (SRB, 48 h), Breast panel; conditions: Homo sapiens, T47D, 48 h exposure
[5] = tested on: SF-268; experiment: NCI in vitro cytotoxicity (SRB, 48 h), CNS panel; conditions: Homo sapiens; SF-268, CNS; 48 h exposure
[6] = tested on: OVCAR-8; experiment: NCI in vitro cytotoxicity (SRB, 48 h), Ovarian panel; conditions: Homo sapiens; OVCAR-8, Ovarian; 48 h exposure
[7] = tested on: MCF7; experiment: NCI in vitro cytotoxicity (SRB, 48 h), Breast panel; conditions: Homo sapiens; for IC50: MCF7, MCF-7, Table 4, read-out: Comparative efficacy; for GI50: MCF7, Breast, 48 h exposure
Procedure: (§1) The imidazothiazole-chalcone hybrids 7a, 7e, 7f, 8f and 19e have been tested against sixty human tumour cell lines derived from nine cancer types (leukemia, non-small cell lung cancer, colon cancer, CNS cancer, melanoma, ovarian cancer, renal cancer, prostate cancer and breast cancer) as per NCI protocol. For each compound, dose response curves for individual cell lines have been measured at a minimum of five concentrations at 10 fold dilutions. A protocol of 48 h continuous drug exposure has been used, and a sulforhodamine B (SRB) protein assay was used to estimate cell viability or growth. The concentration for 50% cell growth inhibition (GI50), total cell growth inhibition (TGI, 0% growth) and 50% cell death (LC50, […]) compared with the control has been calculated (Table-1).

[8] = tested on: MDA-MB-231/ATCC; experiment: as above; conditions: Homo sapiens; for GI50: Breast, 48 h exposure; for IC50: Table 4, read-out: Comparative efficacy
Procedure: as §1

[9] = tested on: HCT-116; experiment: NCI in vitro cytotoxicity (SRB, 48 h), Colon panel; conditions: Homo sapiens; for IC50: HCT-116, HCT116, Table 4, read-out: Comparative efficacy
[10] = tested on: M14; experiment: NCI in vitro cytotoxicity (SRB, 48 h), Melanoma panel; conditions: Homo sapiens, 48 h exposure
[11] = tested on: SK-OV-3; experiment: NCI in vitro cytotoxicity (SRB, 48 h), Ovarian panel; conditions: Homo sapiens; SK-OV-3, Ovarian; 48 h exposure
[12] = tested on: SNB-75; experiment: NCI in vitro cytotoxicity (SRB, 48 h), CNS panel; conditions: Homo sapiens; SNB-75, CNS; 48 h exposure
[13] = tested on: 786-0; experiment: NCI in vitro cytotoxicity (SRB, 48 h), Renal panel; conditions: Homo sapiens; 786-0, Renal; 48 h exposure
[14] = tested on: LOX IMVI; experiment: NCI in vitro cytotoxicity (SRB, 48 h), Melanoma panel; conditions: Homo sapiens, 48 h exposure
[15] = tested on: Melanoma cell lines; experiment: NCI in vitro cytotoxicity, whole panel; conditions: Homo sapiens; for CC50: read-out: Log10 LC50 (converted)
[16] = tested on: SK-MEL-5; experiment: NCI in vitro cytotoxicity (SRB, 48 h), Melanoma panel; conditions: Homo sapiens; SK-MEL-5, Melanoma; 48 h exposure
[17] = tested on: Renal cancer cell lines; experiment: NCI in vitro cytotoxicity, whole panel; conditions: Homo sapiens; for CC50: read-out: Log10 LC50 (converted)
[18] = tested on: COLO 205; experiment: NCI in vitro cytotoxicity (SRB, 48 h), Colon panel; conditions: Homo sapiens; COLO 205, Colon; 48 h exposure
[19] = tested on: Colon cancer cell lines; experiment: NCI in vitro cytotoxicity, whole panel; conditions: Homo sapiens; for CC50: read-out: Log10 LC50 (converted)
[20] = tested on: UACC-62; experiment: NCI in vitro cytotoxicity (SRB, 48 h), Melanoma panel; conditions: Homo sapiens; UACC-62, Melanoma; 48 h exposure
[21] = tested on: Prostate cancer cell lines; experiment: NCI in vitro cytotoxicity, whole panel; conditions: Homo sapiens; for LC50: read-out: Log10 LC50 (converted)
[22] = tested on: SW-620; experiment: NCI in vitro cytotoxicity (SRB, 48 h), Colon panel; conditions: Homo sapiens; SW-620, Colon; 48 h exposure
[23] = tested on: MDAMB-435; experiment: NCI in vitro cytotoxicity (SRB, 48 h), Melanoma panel; conditions: Homo sapiens, MDA-MB-435; MDAMB-435, Melanoma; 48 h exposure
[24] = tested on: OVCAR-4; experiment: NCI in vitro cytotoxicity (SRB, 48 h), Ovarian panel; conditions: Homo sapiens; OVCAR-4, Ovarian; 48 h exposure
[25] = tested on: HT29; experiment: NCI in vitro cytotoxicity (SRB, 48 h), Colon panel; conditions: Homo sapiens, HT-29, 48 h exposure
[26] = tested on: SN12C; experiment: NCI in vitro cytotoxicity (SRB, 48 h), Renal panel; conditions: Homo sapiens, 48 h exposure
[27] = tested on: UO-31; experiment: NCI in vitro cytotoxicity (SRB, 48 h), Renal panel; conditions: Homo sapiens; UO-31, Renal; 48 h exposure
[28] = tested on: IGROV1; experiment: NCI in vitro cytotoxicity (SRB, 48 h), Ovarian panel; conditions: Homo sapiens, IGROV-1
[29] = tested on: Breast cancer cell lines; experiment: NCI in vitro cytotoxicity, whole panel; conditions: Homo sapiens; for GI50 / CC50: Breast, average of six to eight cell lines; for GI50: read-out: Log10 GI50 (converted); for CC50: read-out: Log10 LC50 (converted); for IC50: exposure period of at least 48 hrs, read-out: IC50, range over breast cell lines
[30] = tested on: BT-549; experiment: NCI in vitro cytotoxicity (SRB, 48 h), Breast panel; conditions: Homo sapiens; BT-549, Breast; 48 h exposure
[31] = tested on: NCI-H322M; experiment: NCI in vitro cytotoxicity (SRB, 48 h), Non-small cell lung panel; conditions: Homo sapiens, 48 h exposure
[32] = tested on: PC-3; experiment: NCI in vitro cytotoxicity (SRB, 48 h), Prostate panel; conditions: Homo sapiens; PC-3, Prostate; 48 h exposure
[33] = tested on: RPMI-8226; experiment: NCI in vitro cytotoxicity (SRB, 48 h), Leukemia panel; conditions: Homo sapiens; RPMI-8226, Leukemia; 48 h exposure
[34] = Melanoma, average of six to eight cell lines, read-out: Log10 GI50 (converted)
[35] = Melanoma, average of six to eight cell lines
[36] = exposure period of at least 48 hrs, read-out: GI50, range over melanoma cell lines
[37] = Renal, average of six to eight cell lines, read-out: Log10 GI50 (converted)
[38] = Renal, average of six to eight cell lines
[39] = exposure period of at least 48 hrs, read-out: GI50, range over renal cell lines
[40] = Colon, average of six to eight cell lines, read-out: Log10 GI50 (converted)
[41] = Colon, average of six to eight cell lines
[42] = exposure period of at least 48 hrs, read-out: GI50, range over colon cell lines
[43] = Prostate cell, exposure period of at least 48 hrs, read-out: GI50, range over prostate cell lines
[44] = Prostate, average of the panel's cell lines, read-out: Log10 GI50 (converted)
[45] = Prostate, average of the panel's cell lines

COc1cc(C(=O)/C=C/c2c(-c3ccc(F)cc3)nc3sccn23)cc(OC)c1OC [Compound 7e, (E)-3-(6-(4-fluorophenyl)imidazo[2,1-b]thiazol-5-yl)-1-(3,4,5-trimethoxyphenyl)prop-2-en-1-one]
GI50 [1]: 1550 nM | GI50 [2]: 40 nM | IC50 ([2]; CAKI-1, Table 4, read-out: Comparative efficacy): 40 nM | GI50 [3]: 3.73 µM | GI50 [4]: 3250 nM | GI50 [5]: 2520 nM | GI50 [6]: 1980 nM | IC50 [7]: 2240 nM | GI50 [7]: 2240 nM | GI50 [8]: 2490 nM | IC50 [8]: 2490 nM | IC50 [9]: 2330 nM | GI50 ([9]; HCT-116, Colon, 48 h exposure): 2330 nM | GI50 [10]: 2750 nM | GI50 [11]: 3020 nM | GI50 [12]: 2460 nM | GI50 [13]: 2510 nM | GI50 [14]: 1850 nM | GI50 [15, 34]: 2630 nM | CC50 [15, 35]: 42.7 µM | GI50 [15, 36]: 1820 to 8270 nM | GI50 [16]: 1450 nM | GI50 [17, 37]: 1550 nM | CC50 [17, 38]: 87.1 µM | GI50 [17, 39]: 40 to 5810 nM | GI50 [18]: 2790 nM | GI50 [19, 40]: 2630 nM | CC50 [19, 41]: 38 µM | GI50 [19, 42]: 2110 to 2990 nM | GI50 [20]: 1820 nM | GI50 [21, 43]: 2450 to 3430 nM | GI50 [21, 44]: 2950 nM | LC50 [21, 45]: ≥ 100 µM | GI50 [22]: 2990 nM | GI50 [23]: 1820 nM | GI50 [24]: 3.78 µM | GI50 [25]: 2840 nM | GI50 [26]: 1880 nM | GI50 [27]: 2030 nM | GI50 ([28]; IGROV1, Ovarian, 48 h exposure): 1040 nM | GI50 ([28]; IGROV1, ovarian): 1040 nM | IC50 ([28]; IGROV1, Table 4, read-out: Comparative efficacy): 1040 nM | GI50 [29]: 2820 nM | CC50 [29]: ≥ 100 µM | IC50 [29]: 2050 to 3760 nM | GI50 [30]: 3.76 µM | GI50 [31]: 3630 nM | GI50 [32]: 3.43 µM

COc1cc(C(=O)/C=C/c2c(C(F)(F)F)nc3sccn23)cc(OC)c1OC [Compound 7f, (E)-3-(6-(trifluoromethyl)imidazo[2,1-b]thiazol-5-yl)-1-(3,4,5-trimethoxyphenyl)prop-2-en-1-one]
GI50 [1]: 1740 nM | GI50 [2]: 1760 nM | GI50 [3]: 2.67 µM | GI50 [4]: 2120 nM | GI50 [5]: 1740 nM | GI50 [6]: 3080 nM | IC50 [7]: 1250 nM | GI50 [7]: 1250 nM | GI50 [8]: 2920 nM | IC50 [8]: 2920 nM | IC50 [9]: 1010 nM | GI50 ([9]; HCT-116, Colon, 48 h exposure): 1010 nM | GI50 ([9]; HCT-116, colon): 1010 nM | GI50 [11]: 2870 nM | GI50 [12]: 1870 nM | GI50 [13]: 1760 nM | GI50 [14]: 1360 nM | GI50 [15, 34]: 1700 nM | CC50 [15, 35]: 9.33 µM | GI50 [15, 36]: 1360 to 2260 nM | GI50 [16]: 1590 nM | GI50 [17, 37]: 1860 nM | CC50 [17, 38]: 10.5 µM | GI50 [17, 39]: 1560 to 2300 nM | GI50 [18]: 1940 nM | GI50 [19, 40]: 1620 nM | CC50 [19, 41]: 8.51 µM | GI50 [19, 42]: 1010 to 1940 nM | GI50 [20]: 1520 nM | GI50 [21, 43]: 1410 to 2660 nM | GI50 [21, 44]: 1950 nM | LC50 [21, 45]: 20 µM | GI50 [22]: 1670 nM | GI50 [23]: 1610 nM | GI50 [24]: 3.05 µM | GI50 [25]: 1830 nM | GI50 [26]: 1560 nM | GI50 [27]: 1870 nM | GI50 ([28]; IGROV1, Ovarian, 48 h exposure): 2660 nM | GI50 [33]: 1080 nM | GI50 [29]: 2090 nM | CC50 [29]: 24.5 µM | IC50 [29]: 1250 to 2920 nM | GI50 [30]: 2.26 µM | GI50 [31]: 1960 nM | GI50 [32]: 2.66 µM
